Experimental data: publication PMC10226046, “Prodrug Strategies for the Development of β-L-5-((E)-2-Bromovinyl)-1-((2S,4S)-2-(hydroxymethyl)-1,3-(dioxolane-4-yl))uracil (L-BHDU) against Varicella Zoster Virus (VZV)” (Journal of Medicinal Chemistry, 2023)
pEC50: −log10 of the molar value. Like-named read-outs stand apart in the source and are kept apart here.

Assays:
[1] = system: VZV-ORF57-Luc; experiment: microbe, parasite or virus in culture; settings: Human alphaherpesvirus 3, ARPE-19, cell-free VZV-ORF57-Luc, ARPE-19 cells, 72 hpi, bioluminescence imaging
[2] = system: VZV-ORF57-Luc; settings: for pEC50: cell-free VZV-ORF57-Luc, ARPE-19 cells, 72 hpi, bioluminescence imaging
[3] = in vitro; settings: human
[4] = Neutral red dye uptake cytotoxicity assay in ARPE-19 cells; settings: human
[5] = system: VZV; settings: cited from earlier work
[6] = system: VZV-ORF57-ΔTKTS; experiment: microbe, parasite or virus in culture; format: cell-based, Varicella zoster virus
[7] = system: VZV-ORF57-ΔTK; experiment: microbe, parasite or virus in culture; format: cell-based, Varicella zoster virus
[8] = system: VZV-ORF57-ΔTS; experiment: microbe, parasite or virus in culture; format: cell-based, Varicella zoster virus
[9] = system: VZV-ORF57-Luc; experiment: microbe, parasite or virus in culture; format: cell-based, Varicella zoster virus
[10] = system: ARPE-19 cells; experiment: Neutral red dye uptake cytotoxicity assay in ARPE-19 cells; settings: 72 h, neutral red assay
[11] = selectivity index = CC50/EC50, ARPE-19 cells
[12] = Human alphaherpesvirus 3, ARPE-19
[13] = cell-associated virus, ARPE-19 cells
[14] = cell-associated VZV-ORF57-ΔTKTS, ARPE-19 cells, read-out: EC50
[15] = cell-associated VZV-ORF57-ΔTK, ARPE-19 cells, read-out: EC50
[16] = cell-associated VZV-ORF57-ΔTS, ARPE-19 cells, read-out: EC50
[17] = cell-associated VZV-ORF57-Luc, ARPE-19 cells, read-out: EC50

Row | Compound | pEC50 [1] | SI (CC50/EC50) [2] | SI (CC50/EC50) [2, 11] | CC50 at 72 h [4] | also measured
1 | CC(C)OC(=O)C(C)NP(=O)(OC[C@H]1OC[C@@H](n2cc(/C=C/Br)c(=O)[nH]c2=O)O1)Oc1ccccc1 (stereo in doubt) [Isopropyl ((((2S,4S)-4-(5-((E)-2-Bromovinyl)-2,4-dioxo-3,4-dihydropyrimidin-1(2H)-yl)-1,3-dioxolan-2-yl)methoxy)(phenoxy)phosphoryl)-L-alaninate] | 5.77 | >206 |  |  | CC50 [3]: > 100000 nM
2 | CC(C)OC(=O)C(Cc1ccccc1)NP(=O)(OC[C@H]1OC[C@@H](n2cc(/C=C/Br)c(=O)[nH]c2=O)O1)Oc1ccccc1 (stereo in doubt) [Isopropyl ((((2S,4S)-4-(5-((E)-2-Bromovinyl)-2,4-dioxo-3,4-dihydropyrimidin-1(2H)-yl)-1,3-dioxolan-2-yl)methoxy)(phenoxy)phosphoryl)-L-phenylalaninate] | 5.82 | 61 | 61 |  | CC50 at 72 h [3]: 93700 nM
3 | CC(C)(N)C(=O)OC[C@H]1OC[C@@H](n2cc(/C=C/Br)c(=O)[nH]c2=O)O1.Cl [L-BHDU-2-aminoisobutyric acid (24), L-BHDU-5′-O-2-aminoisobutyric Acid Ester Hydrochloride] | 7.41 | >2597 | >2597 | > 100000 nM | 
4 | CC(C)[C@H](N)C(=O)OC[C@H]1OC[C@@H](n2cc(/C=C/Br)c(=O)[nH]c2=O)O1.Cl [L-BHDU-D-valine (18), L-BHDU-5′-O-D-valyl Ester Hydrochloride] | 6.85 | >709 | >709 | > 100000 nM | pEC50 [2]: 6.85
5 | C[C@@H](N)C(=O)OC[C@H]1OC[C@@H](n2cc(/C=C/Br)c(=O)[nH]c2=O)O1.Cl [L-BHDU-L-alanine (15), L-BHDU-5′-O-L-alanyl Ester Hydrochloride] | 7.47 | >2959 | >2959 | > 100000 nM | 
6 | Cl.NC(=O)CC[C@H](N)C(=O)OC[C@H]1OC[C@@H](n2cc(/C=C/Br)c(=O)[nH]c2=O)O1 [L-BHDU-L-glutamine (23), L-BHDU-5′-O-L-glutamine Ester Hydrochloride] | 6.90 | >794 | >794 | > 100000 nM | 
7 | CC[C@H](C)[C@H](N)C(=O)OC[C@H]1OC[C@@H](n2cc(/C=C/Br)c(=O)[nH]c2=O)O1.Cl [L-BHDU-L-isoleucine (21), L-BHDU-5′-O-L-isoleucine Ester Hydrochloride] | 7.18 | >1520 | >1520 | > 100000 nM | 
8 | CC(C)C[C@H](N)C(=O)OC[C@H]1OC[C@@H](n2cc(/C=C/Br)c(=O)[nH]c2=O)O1.Cl [L-BHDU-L-leucine (20), L-BHDU-5′-O-L-leucine Ester Hydrochloride] | 7.38 | >2415 | >2415 | > 100000 nM | 
9 | Cl.NCCCC[C@H](N)C(=O)OC[C@H]1OC[C@@H](n2cc(/C=C/Br)c(=O)[nH]c2=O)O1 [L-BHDU-L-lysine (25), L-BHDU-5′-O-L-lysine Ester Hydrochloride] | 7.39 |  | >2481 | > 100000 nM | 
10 | Cl.N[C@H](Cc1ccccc1)C(=O)OC[C@H]1OC[C@@H](n2cc(/C=C/Br)c(=O)[nH]c2=O)O1 [L-BHDU-L-phenylalanine (16), L-BHDU-5′-O-L-phenylalanyl Ester Hydrochloride] | 7.55 | >3484 | >3484 | > 100000 nM | pEC50 [2]: 7.54; SI (CC50/EC50) ([2]; selectivity index = CC50/EC50, ARPE-19 cells, listed as 16): > 3484
11 | Cl.O=C(OC[C@H]1OC[C@@H](n2cc(/C=C/Br)c(=O)[nH]c2=O)O1)[C@@H]1CCCN1 [L-BHDU-L-proline (22), L-BHDU-5′-O-L-proline Ester Hydrochloride] | 7.29 | >1934 | >1934 | > 100000 nM | 
12 | Cl.N[C@@H](Cc1c[nH]c2ccccc12)C(=O)OC[C@H]1OC[C@@H](n2cc(/C=C/Br)c(=O)[nH]c2=O)O1 [L-BHDU-L-tryptophan (19), L-BHDU-5′-O-L-tryptophan Ester Hydrochloride] | 7.19 | >1550 | >1550 | > 100000 nM | 
13 | Cl.N[C@@H](Cc1ccc(O)cc1)C(=O)OC[C@H]1OC[C@@H](n2cc(/C=C/Br)c(=O)[nH]c2=O)O1 [L-BHDU-L-tyrosine (26), L-BHDU-5′-O-L-tyrosine Ester Hydrochloride] | 6.92 | >826 | >826 | > 100000 nM | 
14 | Cl.NCC(=O)OC[C@H]1OC[C@@H](n2cc(/C=C/Br)c(=O)[nH]c2=O)O1 [L-BHDU-glycine (14), L-BHDU-5′-O-glycyl Ester Hydrochloride] | 7.33 | >2132 | >2132 | > 100000 nM | 
15 | CC(C)[C@H](N)C(=O)OCCOCn1cnc2c(=O)[nH]c(N)nc21 [VACV, valacyclovir] |  |  |  |  | effect on VZV spread ([5]; 120 mg/kg/day, SCID-hu mouse): no effect; effect on VZV replication ([5]; SCID-hu mice): did not affect VZV replication
16 | Nc1nc2c(ncn2COCCO)c(=O)[nH]1 [acyclovir (ACV), acyclovir, reference compound] |  |  |  | > 100000 nM | 
17 | Nc1ccn(C[C@@H](CO)OCP(=O)(O)O)c(=O)n1 [cidofovir (CDV), cidofovir, reference compound] | 6.32 |  | >208 | > 100000 nM | pEC50 [6, 12]: 5.98; activity against VZV-ORF57-ΔTKTS (in words) [6, 13]: effective; pEC50 [7, 12]: 6.38; activity against VZV-ORF57-ΔTK (in words) [7, 13]: effective; pEC50 [8, 12]: 8.00; pEC50 [9, 12]: 6.43
18 | CC(C)(C)OC(=O)N[C@@H](Cc1ccc(O)cc1)C(=O)O [compound 27] |  | >2481 |  |  | 
19 | Bis(POC) Prodrug of L-BHDU-MP [POC-L-BHDU-MP (47)] |  | >2915 | >2915 |  | pEC50 [6, 14]: < 5.70; pEC50 [7, 15]: < 5.70; CC50 [10]: > 100000 nM; pEC50 [8, 16]: 8.08; pEC50 [9, 17]: 7.40; pEC50 [2]: 7.46; pEC50 ([2]; listed as POC-L-BHDU-MP): 7.47; SI (CC50/EC50) ([2]; selectivity index = CC50/EC50, ARPE-19 cells, listed as POC-L-BHDU-MP): > 2915
20 | L-BHDU-5′-[(2-hexadecyloxyethyl)phosphate] [HDP-L-BHDU-MP (39)] |  | 35 | 35 |  | CC50 [10]: 18500 nM; pEC50 [2]: 6.28; pEC50 ([2]; listed as 39): 6.28
21 | L-BHDU-5′-[(2-octadecyloxyethyl)phosphate] [ODE-L-BHDU-MP (38)] |  | 339 | 339 |  | pEC50 [6, 14]: < 5.70; pEC50 [7, 15]: < 5.70; CC50 [10]: 33900 nM; pEC50 [8, 16]: 9.10; fold more potent compared to ACV ([9]; cell-associated VZV-ORF57-Luc): 9 fold; pEC50 [9, 17]: 6.09; pEC50 [2]: 7.00
